This note sets out measurements from patent publication US6395769B1, “2-arylbenzo[b]thiophenes useful for the treatment of estrogen deprivation syndrome” (Eli Lilly and Company, priority 1997, dated 2002).

The test system of one data set is bone mineral density. Briefly: Osteoporosis model in ovariectomized rats, bone mineral density. To be noted: OVX rats treated orally daily for 35 days, in 20% hydroxypropyl β-cyclodextrin; femur x-ray image analysis and tibia quantitative computed tomography. Type of data set: in vivo, Sprague Dawley rats. From the text:
Seventy-five day old female Sprague Dawley rats (weight range of 200 g to 225 g) are obtained from Charles River Laboratories (Portage, Mich.). The animals are either bilaterally ovariectomized (OVX) or exposed to a Sham surgical procedure at Charles River Laboratories, and then shipped after one week. Upon arrival, they are housed in metal hanging cages in groups of 3 or 4 per cage and have ad libitum access to food (calcium content approximately 0.5%) and water for one week. Room temperature is maintained at 22.2°±1.70° C. with a minimum relative humidity of 40%. The photoperiod in the room is 12 hours light and 12 hours dark.
Following the General Procedure, infra, the rats are treated daily for 35 days (6 rats per treatment group) and sacrificed by carbon dioxide asphyxiation on the 36th day. The 35 day time period is sufficient to allow maximal reduction in bone density, measured as described herein. At the time of sacrifice, the uteri are removed, dissected free of extraneous tissue, and the fluid contents are expelled before determination of wet weight in order to confirm estrogen deficiency associated with complete ovariectomy. […]
The right femurs are excised and digitilized x-rays generated and analyzed by an image analysis program (NIH image) at the distal metaphysis. The proximal aspect of the tibiae from these animals are also scanned by quantitative computed tomography.

In turn, `COc1ccc(-c2cc3ccc(OC)cc3s2)cc1` [Example 1, 2-(4-Methoxyphenyl)-6-Methoxybenzo[b]thiophene] displayed a melting point of 193 to 194 °C.
For the molecule `C#C[C@]1(O)CC[C@H]2[C@@H]3CCc4cc(O)ccc4[C@H]3CC[C@@]21C` [ethynyl estradiol, 17-α-ethynyl estradiol], the “loss of bone mineral density” value in the data set with bone mineral density was “a reduction in the loss of bone mineral density”.

The melting point is the temperature, or range, at which the solid turns liquid.
